Key:
[1] = 101 kPa
[2] = xn = mol fraction of the nth substance listed; settings: 101 kPa

OCC1CC1
[1]
Settings	viscosity [mPa·s]
293.15 K	3.985
298.15 K	3.447
303.15 K	3.002
308.15 K	2.629
313.15 K	2.315
323.15 K	1.819

c1ccc(Cc2ccccc2)cc1
Settings	viscosity [mPa·s]
[1], 302.85 K	2.611

Brc1ccc(Br)cc1 + c1ccccc1
viscosity [mPa·s], [2]
Settings	298.15 K	303.15 K	308.15 K	313.15 K
x1 = 0.2002	0.8249	0.7715	0.719	0.6739
x1 = 0.2312	0.8532	0.8051	0.7502	0.7021

CCCCCCCCCCCCN + c1ccccc1
[2], 303.15 K
Settings	viscosity [mPa·s]
x2 = 0.2072	2.122
x2 = 0.4348	1.563
x2 = 0.5228	1.375
x2 = 0.6046	1.189
x2 = 0.7998	0.8357

Cc1cccc(O)c1 + c1ccccc1
[2], 308.15 K
Settings	viscosity [mPa·s]
x1 = 0.1019	0.6327
x1 = 0.1702	0.7272
x1 = 0.305	0.9887
x1 = 0.4025	1.282
x1 = 0.5186	1.693
x1 = 0.6441	2.436
x1 = 0.768	3.648
x1 = 0.8611	4.963
x1 = 0.9525	6.937

c1ccc(Cc2ccccc2)cc1 + c1ccccc1
[2], 302.85 K
Settings	viscosity [mPa·s]
x1 = 0.113	0.733
x1 = 0.204	0.877
x1 = 0.288	1.026
x1 = 0.523	1.502
x1 = 0.686	1.873
x1 = 0.801	2.132
x1 = 0.893	2.342

Cc1cccc(O)c1 + c1ccncc1
viscosity [mPa·s], [2]
Settings	x1 = 0.1071	x1 = 0.2168	x1 = 0.3407	x1 = 0.3927	x1 = 0.4754	x1 = 0.542	x1 = 0.6374	x1 = 0.6973	x1 = 0.8077	x1 = 0.8862
293.15 K	1.228	1.77	2.54	3.085	4.25	5.585	8.16	9.98	13.08	14.81
303.15 K	1.098	1.461	2.125	2.51	3.35	4.175	5.57	6.52	7.885	8.64
313.15 K	0.931	1.24	1.732	2.022	2.605	3.15	3.995	4.565	5.255	5.59

Source: the CheMixHub viscosity set
